Assay results: publication PMC12410356 (International Journal for Parasitology: Drugs and Drug …, 2025)

Columns and labels:
[1] = system: E. multilocularis metacestode vesicles; test: Phosphoglucose isomerase (PGI) release assay (damage-marker release) on metacestode vesicles; assay type: cell-based, Echinococcus multilocularis; settings: 10 μM; for PGI d5 (relative PGI release): 5 days; for PGI d12 (relative PGI release): 12 days
[2] = system: E. multilocularis metacestode vesicles; test: Metacestode vesicle viability assay (ATP, CellTiter-Glo); assay type: cell-based, Echinococcus multilocularis
Procedure: Viability was assessed after 12 days using the same metacestode vesicles as for the PGI release assay. Triton X-100 was added to each well to a final concentration of 0.1 %. Subsequently the metacestode vesicles were broken mechanically and 50 μL of the supernatant was mixed with 50 μL of CellTiter-Glo® buffer (Promega, Dübendorf, Switzerland). Measurements were performed on a HIDEX Sense microplate reader.

[3] = confirmation screen, triplicates, mean
[4] = overview screen, singlets, relative to 0.1 % Triton X-100, DMSO subtracted
[5] = confirmation screen, 10 μM, triplicates, mean, 12 days
[6] = overview screen, 10 μM, singlets, 12 days, relative to DMSO control

Compound	PGI d5 (relative PGI release) [1, 3] [%]	PGI d12 (relative PGI release) [1, 3] [%]	PGI d5 (relative PGI release) [1, 4] [%]	PGI d12 (relative PGI release) [1, 4] [%]	Viability d12 (relative viability) [2, 5] [%]	Viability d12 (relative viability) [2, 6] [%]	Viability d12 (relative viability) ([2]; 10 µM) [%]
CCC[C@@H]1C[C@@H](C(=O)N[C@@H]([C@H]2O[C@H](SC)[C@H](O)[C@@H](O)[C@H]2O)[C@H](C)Cl)N(C)C1.Cl [MMV000051]	0.38	-0.19	15.4885	58.7211	61.99	23.7506	
N=c1n(CCN2CCCCC2)c2ccccc2n1CC(O)COc1ccc(Cl)cc1Cl (stereo not drawn) [MMV394033]	0.57	0.65	6.943	70.607	90.34	9.628	
CCC(C)n1ncn(-c2ccc(N3CCN(c4ccc(OCC5COC(Cn6cncn6)(c6ccc(Cl)cc6Cl)O5)cc4)CC3)cc2)c1=O (stereo not drawn) [MMV637528]			-2.417	-24.1326		37.4902	
O=C(/C=C/n1cnc(-c2cc(C(F)(F)F)cc(C(F)(F)F)c2)n1)NNc1cnccn1 [MMV1593517]			1.037	-18.0019			95.9515
Nc1cc(N)c2nc(-c3ccccc3)c(Nc3ccc(F)cc3)nc2c1 [MMV1581554]			4.452	-9.136		104.705	
NC(=O)c1nccn([C@@H]2O[C@H](CO)[C@@H](O)[C@H]2O)c1=O [MMV1782104]			1.472	-19.2173		106.79	
C[C@H](c1cccc2ccccc12)N(C)Cc1ccccc1 [MMV1782221]			2	-21.1471		45.2554	
Cl.N=C(N)c1ccc(COc2ccc(Cl)cc2)cc1 [MMV1579844]			-0.5727	10.4621		5.845	
Nc1nc(O)c(Br)c(-c2cccc(Cl)c2)n1 [MMV1645152]			-0.1718	-17.4315		465.171	
CCCCN1C[C@H](O)[C@@H](O)[C@H](O)[C@H]1CO [MMV1782098]			-0.9049	-0.1991		82.1234	
C[C@@H](O)[C@H](N)C(=O)NS(=O)(=O)c1cccc(-c2ccc3[nH]ncc3c2)c1.Cl.Cl [MMV1582494]			-2.197	-25.2892		90.2603	
N[C@H]1CCC[C@H]1C(=O)O [MMV1634361]			0.2611	0.2526		78.6856	
O=C1c2cccc3cccc(c23)C(=O)N1CC1CO1 (stereo not drawn) [MMV1634360]			-2.544	17.7299		25.8841	
COc1ccc(NC(=O)c2cc3ccccn3n2)cc1 [MMV374187]			0.2305	3.37		96.2395	
O=C1NC(=O)C(Br)=C1Br [MMV1578554]			3.162	5.51		135.147	
Cn1cncc1[C@@](N)(c1ccc(Cl)cc1)c1ccc2c(c1)c(-c1cccc(Cl)c1)cc(=O)n2C [MMV658803]			0.7883	-2.529		92.252	
Cc1cc(Nc2ccc(F)cc2)nc(SCc2nc3ccccc3[nH]2)n1 [MMV1582498]			0.3642	1.096		46.2574	
C[C@H](NC(=O)C(=O)Nc1ccccc1C(C)(C)C)C(=O)N[C@@H](CC(=O)O)C(=O)COc1c(F)c(F)cc(F)c1F [MMV1580794]			-0.7921	-19.0747		57.1149	
COc1cc(NCc2ccc3nc(N)nc(N)c3c2C)cc(OC)c1OC [MMV1580173]			-1.642	-23.9013			66.8811
O=[N+]([O-])c1ccc2c(CCc3c[nH]c4ccccc34)c[nH]c2c1 [MMV1593539]			1.886	90.6206		72.058	

Compound	PGI d5 (relative PGI release) [1, 3] [%]	PGI d12 (relative PGI release) [1, 3] [%]	PGI d5 (relative PGI release) [1, 4] [%]	PGI d12 (relative PGI release) [1, 4] [%]	Viability d12 (relative viability) [2, 5] [%]	Viability d12 (relative viability) [2, 6] [%]	Viability d12 (relative viability) ([2]; 10 µM) [%]
O=[N+]([O-])c1cn2c(n1)OC[C@@H](OCc1ccc(OC(F)(F)F)cc1)C2 [MMV688755]			-1.0977	-12.4687		91.4293	
CC(=O)N[C@H](C)C(=O)N[C@H](Cc1ccccc1)C(=O)O [MMV1580845]			0.2541	-2.372		90.1704	
C[C@@]1(O)[C@H](O)[C@@H](CO)O[C@H]1n1ccc2c(N)ncnc21 [MMV1593519]			0.01923	0.1259		152.992	
Nc1nc2c(ncn2[C@@H]2O[C@H](CO)[C@@H](O)[C@H]2F)c(=O)[nH]1 [MMV1633677]			-0.3308	49.9588		216.057	
NC(=O)c1ccc(I)c([N+](=O)[O-])c1 [MMV1581035]			1.539	-0.2873		321.911	
CCOC(=O)N[C@@H]1CC[C@@H]2[C@@H](C1)C[C@H]1C(=O)O[C@H](C)[C@H]1[C@H]2/C=C/c1ccc(-c2cccc(F)c2)cn1 [MMV1593515]			1.1006	-17.1599		74.5757	
O=C(NC12CC3CC(CC(C3)C1)C2)c1cc2ccccc2[nH]1 [MMV1578577]			-0.2186	-2.179		82.8787	
O=C(N[C@H](CCS)C(=O)N[C@H](Cc1ccccc1)C(=O)O)c1cc2ccccc2[nH]1 [MMV1581557]			-0.9852	-10.8141		26.3851	
OB1OCc2c1ccc(Cl)c2F [MMV1782226]			-2.405	-26.1495		39.4941	
CC(=O)Nc1cc(NS(=O)(=O)c2ccc(Cl)cc2)cc2c(Cl)n[nH]c12 [MMV1579779]			1.247	30.3469		88.2086	
CCCCSc1nc(N)c2[nH]c(=O)c(=O)n(Cc3ccccc3)c2n1 [MMV1579783]			3.365	-15.2556		63.4578	
CCc1nc(N)nc(N)c1C#CC(C)c1cc(OC)cc(-c2ccncc2)c1 (stereo not drawn) [MMV1580844]	-0.46	0.83	-2.169	33.6502	84.60	16.6994	
CC#C[C@]1(O)CC[C@H]2[C@@H]3CCC4=CC(=O)CCC4=C3[C@@H](c3ccc(N(C)C)cc3)C[C@@]21C [MMV003297]			-0.9731	-0.6398			92.6641
CN(C)[C@@H]1C(=O)C(C(N)=O)=C(O)[C@@]2(O)C(=O)C3=C(O)c4c(O)c(NC(=O)CN5CCCC5)cc(F)c4C[C@H]3C[C@@H]12.Cl.Cl [MMV1578574]			-1.676	-12.2407		18.1189	
COc1ccc2cc3[n+](cc2c1OCCN(CCn1cncn1)Cc1ccc(F)cc1F)CCc1cc2c(cc1-3)OCO2 [MMV1593540]			1.275	36.6613		37.1562	
COc1ccc(SC(=O)N[C@H](CCC(=O)O)C(=O)O)cc1 [MMV1580846]			-0.9041	-2.09		126.077	
CN(C)CCCNC(=O)c1ccc(-c2cc(O)c3ncccc3c2)cc1 [MMV1580488]			-1.606	-1.51		174.002	
NC(=O)C(c1ccccc1)(c1ccccc1)[C@H]1CCCN(CCc2ccc3c(c2)CCO3)C1 [MMV1782412]			1.533	2.087		220.792	
CC(C)N(c1cc(-c2ccccc2)sc1C(=O)O)C(=O)[C@H]1CC[C@H](C)CC1 [MMV1634388]	0.59	0.29	1.026	40.2559	128.08	13.9085	
c1cnc(NCc2ccc(CNc3ncccn3)cc2)nc1 [MMV1580490]			0.6457	0.4288		45.3723	
